The target of this assay is T1, STAT3 (Homo sapiens, UniProt P40763).
T1 construct: expressed in transfected cells; host or cells: A549
The experiment in a line: STAT3 HiBiT degradation assay in transfected A549 cells. Type of assay: cell-based. The note with it: 24 h compound incubation, Nano-Glo HiBiT lytic detection, read-out: Cell: STAT3 HiBit A549 degradation 24 h GMean External Abs-DC50. As for the experimental part: Compound preparation and Cell seeding: The transfected A549 cells were harvested from dish into cell culture medium and cell numbers counted. Cells were diluted with culture medium to the desired density and 30 μL of cell suspension (about 2000 cells/well) were added into each well of a 384-well cell culture plate as designated and transferred into 37° C. 5% CO2 incubator for 24 h. Compounds were dissolved to 10 mM stock solution and 12 μL of the stock solution was transferred to a 384 LDV-plate. 3 fold, 10-point dilution was performed by transferring 4 μL compound into 8 μL DMSO using a TECAN (EVO200) liquid handler. 30 μL of diluted compound from compound source plate was transferred into the cell plate as designated by using Echo550 and transferred into 37° C. 5% CO2 incubator for 24 h.
Detection: Plates were removed from incubators and equilibrated at room temperature for 15 minutes. Nano-Glo Hibit Lytic Detection reagent (Promega Cat #N3040) was thawed and equilibrated to room temperature before the experiment. 30 μL of Nano-Glo Hibit Lytic Detection reagent was added into each well to be detected. The plates were held at room temperature for 10 min followed by reading on EnSpire.
Data analysis: The remaining activity was calculated following the formula: Remaining Activity (%)=100%×(Lumsample−LumNC)/(LumPC−LumNC). Calculate the IC50 by fitting the curve using Xlfit (v5.3.1.3), equation 201: fit=(A+((B−A)/(1+((x/C)^D)))); A: Botton; B: Top; C: IC50; and D: Slope.
The letter codes for STAT3 DC50 include: A (<0.05 μM), B (0.05-0.2 μM), C (0.2-1.0 μM), and D (>1.0 μM).

T1 sequence (P40763 whole entry): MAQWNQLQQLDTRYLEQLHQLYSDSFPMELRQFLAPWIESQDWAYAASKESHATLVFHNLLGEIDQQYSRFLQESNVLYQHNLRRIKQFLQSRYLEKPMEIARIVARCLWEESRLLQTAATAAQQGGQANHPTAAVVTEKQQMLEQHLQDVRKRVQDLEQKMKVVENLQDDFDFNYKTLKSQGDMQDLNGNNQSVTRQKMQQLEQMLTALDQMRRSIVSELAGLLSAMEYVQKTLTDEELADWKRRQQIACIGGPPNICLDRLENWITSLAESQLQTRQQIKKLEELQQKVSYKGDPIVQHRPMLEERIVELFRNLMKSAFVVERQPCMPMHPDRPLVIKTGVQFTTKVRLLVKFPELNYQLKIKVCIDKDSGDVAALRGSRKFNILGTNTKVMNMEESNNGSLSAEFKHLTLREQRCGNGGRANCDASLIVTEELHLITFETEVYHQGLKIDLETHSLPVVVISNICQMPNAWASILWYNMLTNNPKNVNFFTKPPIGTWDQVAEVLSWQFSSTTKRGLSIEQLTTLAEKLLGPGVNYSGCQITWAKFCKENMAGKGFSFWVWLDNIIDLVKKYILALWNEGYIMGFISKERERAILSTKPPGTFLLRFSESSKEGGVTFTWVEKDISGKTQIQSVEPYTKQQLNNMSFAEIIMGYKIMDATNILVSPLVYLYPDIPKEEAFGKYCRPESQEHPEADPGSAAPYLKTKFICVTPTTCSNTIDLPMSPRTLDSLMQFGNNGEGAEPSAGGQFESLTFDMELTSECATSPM

In the case of `COC(=O)N1CC[C@H]2CC[C@@H](C(=O)N[C@@H](CCC(N)=O)C(=O)N[C@H](C(=O)N3CCC(CCCCc4cccc5c4n(C)c(=O)n5C4CCC(=O)NC4=O)CC3)C3CCCCC3)N2C(=O)[C@@H](NC(=O)c2cc3cc(C(F)(F)P(=O)(O)O)ccc3s2)C1` (stereo partly shown) [Compound I-17], the DC50 (as a rule, the concentration at which degradation of the target reaches its halfway point) was 200 to 1000 nM.

The record behind these values is US20240293423A1, “STAT DEGRADERS AND USES THEREOF” (Kymera Therapeutics, Inc., priority 2020, published 2024).
